From patent US20250002473A1, “QUINOXALINE DERIVED SULFONAMIDES WITH EGFR DEGRADATION ACTIVITIES AND THEIR USES THEREOF” (Accutar Biotechnology Inc., priority 2023, published 2025)

Assays:
Format in all cases: cell-based
[1] = tested on: BaF3_SVD; experiment: Cell growth inhibition assay (CellTiter-Glo), BaF3_SVD; settings: Table 7; BaF3_SVD cells
Experimental: (§1) Cells were seeded in a 96-well plate (Corning 3610) with 90 μL of culture medium per well, and plates were incubated at 37° C. overnight. A 1,000× DMSO stock solution of the desired compound was prepared the following day. A compound dilution plate was prepared by diluting the stock solution 1:100 in the corresponding cell culture medium, 10 μL of the diluted compound solution was added to each 96-well plate well containing the seeded cells. Then, the cells were cultured at 37° C. for three days following compound treatment, 100 μL of CellTiter-Glo reagents (Promega G7573) was added to each well of the 96-well plate. The content of the wells was mixed by shaking continuously for 10 min, and luminescence was measured using Envision (PerkinElmer). The data were analyzed with GraphPad Prism 9 (see FIG. 50).
(§2) Table 6, Table 7, and Table 8 list the cell growth inhibition results, where Gls0 represents the compound concentration to cause 50% cell growth inhibition in comparison with DMSO.

[2] = molecular target: T1, NCl-H2073 (EGFR_WT) (Homo sapiens, UniProt P00533); experiment: EGFR degradation assay (western blot), NCl-H2073 cells; settings: Table 5; NCI-H2073 cells (EGFR_WT), 24 h
T1 construct: endogenous in cells; host or cells: A431, NCI-H2073, NCI-H292
Experimental: (§3) A431 (EGFR_WT), NCl-H2073 (EGFR_WT), NCl-H292 (EGFR_WT), BaF3_YVAM (Her2_A775insYVAM), BaF3_SVD (EGFR_D770insSVD), BaF3_ASV (EGFR_A776inASV), or BaF3_DTC (EGFR_Exon19del/T790M/C797S) cells were seeded in a 24-well plate at a density of 4×10^5 cells per well for EGFR WT cells and 8× cells per well for EGFR or Her2 mutant cells, and the plates were incubated overnight. The cells were treated with the desired compounds for 24 h. The culture medium was removed, and 100 μL of RIPA buffer (Beyotime, P0013B) containing 1% Protease Inhibitor Cocktail (Bimake, B14001), 1% Phosphatase Inhibitor Cocktail 2 (Sigma, P5726), and 1% Phosphatase Inhibitor Cocktail 3 (Sigma, P0044) were added to lyse the cells. Then, the cell lysates were transferred to 1.5 mL microcentrifuge tubes and centrifuged at 12,000 rpm and 4° C. for 30 min. The supernatants were transferred into new tubes, and the protein concentration was determined using the BCA protein quantification method. All samples were diluted to the same concentration using RIPA buffer, loading buffer was added, samples were denatured, and 15 μg of protein per lane was loaded onto a SurePAGE 4-20% Bis-Tris gel. Samples were separated via electrophoresis in MOPS running buffer at 180 V for 100 min. […] Fluorescence was detected using the Odyssey CLx Imaging System, and the data were analyzed with Empiria Studio Software and GraphPad Prism 9. […]

[3] = molecular target: T2, BaF3_YVAM (Her2_A775insYVAM) (Homo sapiens, UniProt P04626, INS775YVMA); experiment: EGFR degradation assay (western blot), BaF3_YVAM cells; settings: Table 5; BaF3_YVMA cells (mutant Her2), 24 h
T2 construct: expressed in transfected cells; host or cells: Ba/F3 (engineered)
Experimental: (§4) A431 (EGFR_WT), NCl-H2073 (EGFR_WT), NCl-H292 (EGFR_WT), BaF3_YVAM (Her2_A775insYVAM), BaF3_SVD (EGFR_D770insSVD), BaF3_ASV (EGFR_A776inASV), or BaF3_DTC (EGFR_Exon19del/T790M/C797S) cells were seeded in a 24-well plate at a density of 4×10^5 cells per well for EGFR WT cells and 8× cells per well for EGFR or Her2 mutant cells, and the plates were incubated overnight. The cells were treated with the desired compounds for 24 h. The culture medium was removed, and 100 μL of RIPA buffer (Beyotime, P0013B) containing 1% Protease Inhibitor Cocktail (Bimake, B14001), 1% Phosphatase Inhibitor Cocktail 2 (Sigma, P5726), and 1% Phosphatase Inhibitor Cocktail 3 (Sigma, P0044) were added to lyse the cells. Then, the cell lysates were transferred to 1.5 mL microcentrifuge tubes and centrifuged at 12,000 rpm and 4° C. for 30 min. The supernatants were transferred into new tubes, and the protein concentration was determined using the BCA protein quantification method. All samples were diluted to the same concentration using RIPA buffer, loading buffer was added, samples were denatured, and 15 μg of protein per lane was loaded onto a SurePAGE 4-20% Bis-Tris gel. Samples were separated via electrophoresis in MOPS running buffer at 180 V for 100 min. Then, proteins were transferred onto PVDF membranes using the MiniBlot™ Electrophoretic Transfer Cell Device (Beyotime, E6050). The membrane was blocked using block buffer (LI-COR 927-60001) to prevent non-specific binding. The membrane was incubated with primary antibodies (1:500 dilution, EGFR-CST4405, 1:2000 dilution, Tubulin-ABclonal #AC021) at 4° C. overnight. The membrane was washed three times with 1× TBST buffer for 15 min each. The membrane was incubated with secondary antibodies IRDye 680RD Goat anti-Rabbit IgG Secondary Antibody (1:2000 dilution, LI-COR 926-68071) and IRDye 800CW Goat anti-Mouse IgG Secondary Antibody (1:2000 dilution, LI-COR 926-32210). […] Fluorescence was detected using the Odyssey CLx Imaging System, and the data were analyzed with Empiria Studio Software and GraphPad Prism 9. […]

[4] = tested on: BaF3_YVMA; experiment: Cell growth inhibition assay (CellTiter-Glo), BaF3_YVMA; settings: Table 7; BaF3_YVMA cells; head prints 24 h
Experimental: as §1, with “Then, the cells were cultured at 37° C. for three days following compound treatment, 100 μL of CellTiter-Glo reagents (Promega G7573) was added to each well of the 96-well plate.” left out
as §2

[5] = tested on: BaF3_DTC; experiment: Cell growth inhibition assay (CellTiter-Glo), BaF3_DTC; settings: Table 7; BaF3_Del19/T790M/C797S cells; head prints 24 h; read-out: GI50 (nM), 24 h, BaF3_Del19/T790M/C797S
[6] = molecular target: T3, A431 (EGFR_WT) (Homo sapiens, UniProt P00533); experiment: EGFR degradation assay (western blot), A431 cells; settings: Table 5, 24 h, read-out: DC50 (nM), 24 h, A431
T3 construct: endogenous in cells; host or cells: A431, NCI-H2073, NCI-H292
T3 sequence (P00533 25-1210): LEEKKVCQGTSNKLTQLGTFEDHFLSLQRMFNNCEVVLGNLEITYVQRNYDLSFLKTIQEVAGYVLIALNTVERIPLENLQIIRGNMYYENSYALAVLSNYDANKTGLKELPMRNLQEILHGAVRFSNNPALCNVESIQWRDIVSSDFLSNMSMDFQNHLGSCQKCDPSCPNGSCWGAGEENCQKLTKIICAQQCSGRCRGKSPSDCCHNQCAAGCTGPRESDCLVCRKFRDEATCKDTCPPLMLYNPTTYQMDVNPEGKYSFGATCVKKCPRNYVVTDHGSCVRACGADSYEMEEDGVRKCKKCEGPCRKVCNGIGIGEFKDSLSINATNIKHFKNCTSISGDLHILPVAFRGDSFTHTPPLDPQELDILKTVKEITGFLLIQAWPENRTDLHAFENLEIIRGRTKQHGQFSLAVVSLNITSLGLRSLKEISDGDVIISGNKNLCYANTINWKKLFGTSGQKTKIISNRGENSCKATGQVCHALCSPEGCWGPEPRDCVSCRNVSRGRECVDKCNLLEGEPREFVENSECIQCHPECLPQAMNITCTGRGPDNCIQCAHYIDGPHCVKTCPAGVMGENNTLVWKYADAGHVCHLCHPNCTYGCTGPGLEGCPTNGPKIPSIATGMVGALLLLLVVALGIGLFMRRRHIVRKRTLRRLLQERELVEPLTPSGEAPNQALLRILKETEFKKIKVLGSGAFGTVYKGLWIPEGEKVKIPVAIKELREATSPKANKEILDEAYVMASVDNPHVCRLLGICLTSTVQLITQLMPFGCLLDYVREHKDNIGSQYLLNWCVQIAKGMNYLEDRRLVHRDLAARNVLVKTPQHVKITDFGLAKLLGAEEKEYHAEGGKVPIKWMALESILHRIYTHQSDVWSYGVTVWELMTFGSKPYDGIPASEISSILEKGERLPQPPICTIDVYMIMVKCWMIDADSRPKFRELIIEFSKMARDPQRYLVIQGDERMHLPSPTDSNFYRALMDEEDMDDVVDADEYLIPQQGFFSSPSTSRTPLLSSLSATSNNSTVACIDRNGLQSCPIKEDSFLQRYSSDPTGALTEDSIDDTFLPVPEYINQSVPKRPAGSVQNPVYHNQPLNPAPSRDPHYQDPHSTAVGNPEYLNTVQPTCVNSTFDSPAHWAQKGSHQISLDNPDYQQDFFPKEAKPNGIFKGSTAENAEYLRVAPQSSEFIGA
Procedure, shortened: (§5)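 Cells seeded overnight, then exposed to compounds for 24 h; lysates run on western blot, EGFR probed with tubulin loading control and fluorescent secondary detection. DC50 = concentration giving 50% EGFR degradation.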

[7] = molecular target: T4, BaF3_SVD (EGFR_D770insSVD) (Homo sapiens, UniProt P00533, INS770SVD); experiment: EGFR degradation assay (western blot), BaF3_SVD cells; settings: Table 5; BaF3_SVD cells, 24 h
T4 construct: expressed in transfected cells; host or cells: Ba/F3 (engineered)
T4 sequence (P00533 with tags, fused parts or gaps INS770SVD): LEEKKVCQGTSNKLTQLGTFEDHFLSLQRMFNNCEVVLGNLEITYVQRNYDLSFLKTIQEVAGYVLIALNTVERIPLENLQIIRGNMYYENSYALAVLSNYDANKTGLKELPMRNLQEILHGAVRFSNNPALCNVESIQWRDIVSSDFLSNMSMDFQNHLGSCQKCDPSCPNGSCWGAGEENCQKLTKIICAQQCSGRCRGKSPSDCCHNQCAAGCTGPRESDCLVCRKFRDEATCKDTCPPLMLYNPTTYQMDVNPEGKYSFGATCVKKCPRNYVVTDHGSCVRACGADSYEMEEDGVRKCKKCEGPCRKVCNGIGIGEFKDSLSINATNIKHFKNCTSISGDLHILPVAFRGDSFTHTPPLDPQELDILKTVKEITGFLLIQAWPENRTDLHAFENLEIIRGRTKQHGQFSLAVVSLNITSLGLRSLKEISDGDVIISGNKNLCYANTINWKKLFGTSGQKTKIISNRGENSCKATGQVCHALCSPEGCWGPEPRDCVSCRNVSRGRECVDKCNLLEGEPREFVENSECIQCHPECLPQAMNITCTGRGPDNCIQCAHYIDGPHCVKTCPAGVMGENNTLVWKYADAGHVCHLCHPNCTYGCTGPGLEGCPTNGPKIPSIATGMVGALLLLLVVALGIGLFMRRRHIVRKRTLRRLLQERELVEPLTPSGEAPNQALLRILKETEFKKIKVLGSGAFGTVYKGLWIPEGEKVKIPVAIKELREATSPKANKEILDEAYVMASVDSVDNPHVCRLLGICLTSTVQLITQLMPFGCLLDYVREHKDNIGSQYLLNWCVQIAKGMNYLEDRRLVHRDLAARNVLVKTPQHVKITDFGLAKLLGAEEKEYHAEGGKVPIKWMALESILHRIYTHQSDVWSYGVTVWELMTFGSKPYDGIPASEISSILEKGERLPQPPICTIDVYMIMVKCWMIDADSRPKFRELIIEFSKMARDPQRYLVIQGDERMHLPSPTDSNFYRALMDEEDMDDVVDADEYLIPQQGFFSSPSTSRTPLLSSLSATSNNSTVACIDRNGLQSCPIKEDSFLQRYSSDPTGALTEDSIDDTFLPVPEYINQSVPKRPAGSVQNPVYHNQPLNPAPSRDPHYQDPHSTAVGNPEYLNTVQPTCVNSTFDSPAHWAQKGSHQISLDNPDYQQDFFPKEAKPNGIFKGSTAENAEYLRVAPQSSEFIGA
Experimental: as §4

[8] = molecular target: T5, NCl-H292 (EGFR_WT) (Homo sapiens, UniProt P00533); experiment: EGFR degradation assay (western blot), NCl-H292 cells; settings: Table 5; NCI-H292 cells (EGFR_WT), 24 h
T5 construct: endogenous in cells; host or cells: A431, NCI-H2073, NCI-H292
T5 sequence (P00533 25-1210): as the sequence (P00533 25-1210) above
Experimental: as §3

[9] = tested on: BaF3_ASV; experiment: Cell growth inhibition assay (CellTiter-Glo), BaF3_ASV; settings: Table 7; BaF3_ASV cells; head prints 24 h; read-out: GI50 (nM), 24 h, BaF3_ASV
[10] = tested on: A431; experiment: Cell growth inhibition assay (CellTiter-Glo), A431; settings: Homo sapiens, A-431, 24 h, Table 7; A431 cells; head prints 24 h; read-out: GI50 (nM), 24 h, A431
Procedure, shortened: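 Cells were plated in 96-well plates (Corning 3610) at 90 μL of culture medium per well and incubated overnight at 37° C. The next day, a 1,000× DMSO compound stock was diluted 1:100 in cell culture medium, and 10 μL was added per well. After shaking for 10 min, luminescence was read on an Envision (PerkinElmer) reader.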

[11] = tested on: BaF3_DTC (EGFR_Exon19del/T790M/C797S); experiment: EGFR degradation assay (western blot), BaF3_DTC cells; settings: Table 5; BaF3_Del19/T790M/C797S cells, 24 h; read-out: DC50 (nM), 24 h, BaF3_Del19/T790M/C797S
Procedure, shortened: as §5

[12] = tested on: NCI-H292; experiment: Cell growth inhibition assay (CellTiter-Glo), NCI-H292; settings: Homo sapiens; Table 7; NCI-H292 cells; head prints 24 h
Experimental: as §1, with “Then, the cells were cultured at 37° C. for three days following compound treatment, 100 μL of CellTiter-Glo reagents (Promega G7573) was added to each well of the 96-well plate.” left out
as §2

[13] = molecular target: T6, BaF3_ASV (EGFR_A776inASV) (Homo sapiens, UniProt P00533, DUP767-769); experiment: EGFR degradation assay (western blot), BaF3_ASV cells; settings: Table 5; BaF3_ASV cells, 24 h; read-out: DC50 (nM), 24 h, BaF3_ASV
T6 construct: expressed in transfected cells; host or cells: Ba/F3 (engineered)
T6 sequence (P00533 with tags, fused parts or gaps DUP767-769): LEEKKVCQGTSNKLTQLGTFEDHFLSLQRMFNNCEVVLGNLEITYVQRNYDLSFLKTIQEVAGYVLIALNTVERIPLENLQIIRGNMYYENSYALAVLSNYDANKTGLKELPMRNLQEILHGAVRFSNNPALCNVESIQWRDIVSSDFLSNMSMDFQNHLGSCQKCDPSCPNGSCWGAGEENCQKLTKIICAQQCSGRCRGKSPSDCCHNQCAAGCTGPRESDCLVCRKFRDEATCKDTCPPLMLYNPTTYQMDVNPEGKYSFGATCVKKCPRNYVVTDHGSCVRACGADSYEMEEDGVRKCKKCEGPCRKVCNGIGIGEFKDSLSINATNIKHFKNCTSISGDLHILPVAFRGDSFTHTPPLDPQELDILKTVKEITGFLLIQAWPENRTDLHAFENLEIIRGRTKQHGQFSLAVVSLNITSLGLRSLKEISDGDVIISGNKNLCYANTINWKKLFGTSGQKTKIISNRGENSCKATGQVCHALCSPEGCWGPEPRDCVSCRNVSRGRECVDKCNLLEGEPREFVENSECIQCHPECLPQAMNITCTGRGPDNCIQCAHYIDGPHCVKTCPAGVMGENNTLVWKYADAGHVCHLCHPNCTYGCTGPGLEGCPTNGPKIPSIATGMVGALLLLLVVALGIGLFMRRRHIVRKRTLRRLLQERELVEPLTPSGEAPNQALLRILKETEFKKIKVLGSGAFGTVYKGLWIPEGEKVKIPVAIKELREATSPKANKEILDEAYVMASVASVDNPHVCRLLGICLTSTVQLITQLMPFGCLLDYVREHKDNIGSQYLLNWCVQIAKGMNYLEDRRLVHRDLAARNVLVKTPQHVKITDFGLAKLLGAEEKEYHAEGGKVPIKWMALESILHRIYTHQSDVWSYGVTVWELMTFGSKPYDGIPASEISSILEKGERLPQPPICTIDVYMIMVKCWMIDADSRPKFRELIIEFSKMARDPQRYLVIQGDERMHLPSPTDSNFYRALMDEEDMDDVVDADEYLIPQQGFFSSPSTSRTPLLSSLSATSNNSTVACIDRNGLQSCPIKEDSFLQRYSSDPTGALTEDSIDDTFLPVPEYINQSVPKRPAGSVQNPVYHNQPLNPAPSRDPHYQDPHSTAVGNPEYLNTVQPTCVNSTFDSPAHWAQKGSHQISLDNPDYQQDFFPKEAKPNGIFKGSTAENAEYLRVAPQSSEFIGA
Procedure, shortened: as §5

Compound CCc1cc(Nc2ncc(Br)c(Nc3cnc4ccccc4c3P(C)(C)=O)n2)c(OC)cc1N1CCC(N2CCN(CCc3cccc4c3n(CC)c(=O)n4C3CCC(=O)NC3=O)CC2)CC1 (stereo not shown) [Compound A, reference compound] has a GI50 [1] of 2340 nM, a DC50 [2] of over 1000 nM and a DC50 [3] of over 1000 nM. It also gave a GI50 [4] of 2630 nM, a GI50 [5] of 8.57 nM and a DC50 [6] of over 1000 nM. It also gave a DC50 [7] of 280 nM, a DC50 [8] of over 1000 nM and a GI50 [9] of 824 nM. The GI50 [10] was over 3000 nM, the DC50 [11] was 0.622 nM and the GI50 [12] was over 3000 nM. The DC50 [13] was 109 nM.
